{"source": "patent US20110039874A1", "about": "“MONOACYLGLYCEROL LIPASE INHIBITORS FOR MODULATION OF CANNABINOID ACTIVITY” (Northeastern University, priority 2007, published 2011)"}
{"units": {"melting point": "°C"}}
{"smiles": "Cc1nnc(C(=O)CCCCCCOc2ccc(OCc3ccccc3)cc2)o1", "note": "[Compound 65.2, 7-(4-Benzyloxy-phenoxy)-1-(5-methyl-1,3,4-oxadiazol-2-yl)-heptan-1-one]", "melting point": "118 to 120"}
{"smiles": "O=C(CCCCOc1ccc(OCc2ccccc2)cc1)C(F)(F)F", "note": "[Compound 23.2, 1,1,1-Trifluoro-6-[4-(Benzyloxy)phenoxy]-2-hexanone]", "melting point": "95.5 to 96"}
{"smiles": "O=C(CCCCOc1ccccc1O)C(F)(F)F", "note": "[Compound 24.9, 1,1,1-Trifluoro-6-[2-(hydroxy)phenoxy]-2-hexanone]", "melting point": "51 to 52"}
{"smiles": "Cc1nnc(C(=O)CCCCCCOc2ccc(O)cc2)o1", "note": "[Compound 66, 7-(4-Hydroxy-phenoxy)-1-(5-methyl-1,3,4-oxadiazol-2-yl)-heptan-1-one]", "melting point": "134 to 135"}
{"smiles": "O=C(CCCCCOc1ccccc1OCc1ccccc1)C(F)(F)F", "note": "[Compound 23.10, 1,1,1-Trifluoro-7-[2-(Benzyloxy)phenoxy]-2-heptanone]", "melting point": "31 to 32"}
{"smiles": "COS(=O)(=O)CCCCCCCc1ccc(OCc2ccccc2)cc1", "note": "[Compound 18, 7-(4-Benzyloxy-phenyl)-heptane-1-sulfonic acid methyl ester]", "melting point": "57 to 59"}
{"smiles": "O=C(CCCCCOc1ccc(OCc2ccccc2)cc1)C(F)(F)F", "note": "[Compound 23.3, 1,1,1-Trifluoro-7-[4-(Benzyloxy)phenoxy]-2-heptanone]", "melting point": "59 to 60"}
{"smiles": "O=C(CCCCOc1ccc(O)cc1)C(F)(F)F", "note": "[Compound 24.2, 1,1,1-Trifluoro-6-[4-(hydroxy)phenoxy]-2-hexanone]", "melting point": "63 to 64"}
{"smiles": "O=C(CCCCOc1ccccc1)C(F)(F)F", "note": "[Compound 23.12, 1,1,1-Trifluoro-6-phenoxy-2-hexanone]", "melting point": "50 to 51"}
{"smiles": "O=S(=O)(F)CCCCCc1ccc(OCc2ccccc2)cc1", "note": "[Compound 13.4, 5-(4-Benzyloxy-phenyl)-pentanesulfonyl fluoride]", "melting point": "66 to 68"}
{"smiles": "Oc1cccc(OCCCC(O)(O)C(F)(F)F)c1", "note": "(hydrate or solvate) [Compound 24.5, 1,1,1-Trifluoro-2,2-dihydroxy-5-[3-(hydroxy)phenoxy]pentane]", "melting point": "76 to 77"}
{"smiles": "O=S(=O)(F)CCCCCCCc1ccc(OCc2ccccc2)cc1", "note": "[Compound 13.1, 7-(4-Benzyloxy-phenyl)-heptanesulfonyl fluoride]", "melting point": "35 to 38"}
{"smiles": "O=C(CCCCCCOc1ccc(O)cc1)C(F)(F)F", "note": "[Compound 24.4, 1,1,1-Trifluoro-8-[4-(hydroxy)phenoxy]-2-octanone]", "melting point": "61 to 62"}
{"smiles": "O=S(=O)(F)CCCCOc1ccccc1", "note": "[Compound 17, 4-Phenoxybutylsulfonyl fluoride]", "melting point": "74 to 76"}
{"smiles": "O=C(CCCOc1ccccc1OCc1ccccc1)C(F)(F)F", "note": "[Compound 23.8, 1,1,1-Trifluoro-5-[2-(Benzyloxy)phenoxy]-2-pentanone]", "melting point": "50 to 51"}
{"smiles": "O=C(CCCOc1ccc(OCc2ccccc2)cc1)C(F)(F)F", "note": "[Compound 23.1, 1,1,1-Trifluoro-5-[4-(benzyloxy)phenoxy]-2-pentanone]", "melting point": "59 to 61"}
{"smiles": "O=S(=O)(F)CCCCCCCc1ccc(O)cc1", "note": "[Compound 14.1, 7-(4-Hydroxy-phenyl)-heptanesulfonyl fluoride]", "melting point": "47 to 51"}
{"smiles": "O=C(CCCCCCOc1ccc(OCc2ccccc2)cc1)C(F)(F)F", "note": "[Compound 23.4, 1,1,1-Trifluoro-8-[4-(Benzyloxy)phenoxy]-2-octanone]", "melting point": "82 to 83"}
